For 1 compound, inhibition results are on record in ChEMBL document CHEMBL2169741, “Analysis of the discriminative inhibition of mammalian digestive lipases by 3-phenyl substituted 1,3,4-oxadiazol-2(3H)-ones” (Eur J Med Chem, 2012).

Assay [1] addresses T1, Pancreatic lipase-related protein 2 (Homo sapiens) (UniProt P54317).
T1 sequence (whole entry): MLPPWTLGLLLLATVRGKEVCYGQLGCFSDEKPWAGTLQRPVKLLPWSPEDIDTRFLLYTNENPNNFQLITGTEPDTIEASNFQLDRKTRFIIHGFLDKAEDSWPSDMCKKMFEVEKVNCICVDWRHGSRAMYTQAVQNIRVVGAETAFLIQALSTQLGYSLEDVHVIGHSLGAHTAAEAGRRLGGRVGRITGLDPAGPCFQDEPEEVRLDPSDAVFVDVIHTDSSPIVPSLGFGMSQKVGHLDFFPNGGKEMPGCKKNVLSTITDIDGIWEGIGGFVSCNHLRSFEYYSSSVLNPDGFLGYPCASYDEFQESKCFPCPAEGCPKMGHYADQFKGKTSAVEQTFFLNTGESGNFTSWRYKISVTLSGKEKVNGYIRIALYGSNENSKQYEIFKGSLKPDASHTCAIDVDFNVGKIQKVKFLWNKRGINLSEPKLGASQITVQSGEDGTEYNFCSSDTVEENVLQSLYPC
Briefly: Inhibition of recombinant HPLRP2 expressed in Pichia pastoris assessed as residual activity at 40 molar excess after 30 mins by mass spectrophotometric analysis in presence of NaTDC.

For assay [2], the target named is T2, Bile salt-activated lipase (Homo sapiens) (UniProt P19835).
T2 sequence (whole entry): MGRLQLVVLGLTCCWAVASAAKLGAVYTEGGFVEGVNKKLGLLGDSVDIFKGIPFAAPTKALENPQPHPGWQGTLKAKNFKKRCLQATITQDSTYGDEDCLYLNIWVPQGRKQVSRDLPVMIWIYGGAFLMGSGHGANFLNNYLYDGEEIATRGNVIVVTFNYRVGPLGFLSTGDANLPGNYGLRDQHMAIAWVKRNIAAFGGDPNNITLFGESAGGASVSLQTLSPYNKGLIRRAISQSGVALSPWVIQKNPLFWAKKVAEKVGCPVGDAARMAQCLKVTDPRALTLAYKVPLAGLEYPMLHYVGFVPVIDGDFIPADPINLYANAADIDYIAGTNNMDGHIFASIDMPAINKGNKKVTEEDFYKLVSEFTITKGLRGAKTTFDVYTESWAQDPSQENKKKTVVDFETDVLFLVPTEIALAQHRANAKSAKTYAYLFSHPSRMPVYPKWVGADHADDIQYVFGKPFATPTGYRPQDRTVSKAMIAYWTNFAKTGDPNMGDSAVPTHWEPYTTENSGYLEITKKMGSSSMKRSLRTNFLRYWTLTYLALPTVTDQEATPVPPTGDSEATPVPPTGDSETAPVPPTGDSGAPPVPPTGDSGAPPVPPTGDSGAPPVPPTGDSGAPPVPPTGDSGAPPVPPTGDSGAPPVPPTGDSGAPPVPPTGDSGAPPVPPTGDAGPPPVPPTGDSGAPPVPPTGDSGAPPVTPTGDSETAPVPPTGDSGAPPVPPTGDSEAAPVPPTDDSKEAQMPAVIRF
Briefly: Inhibition of human pancreatic CEH assessed as residual activity at 40 molar excess after 30 mins by mass spectrophotometric analysis.

Calls of active or inactive are those of the source. No cut-off for these calls is given here.

As for `COc1nn(-c2cccc(Oc3ccccc3)c2)c(=O)o1`, the inhibition result in assay [1] and in assay [2] was “Active” in each case.
